Reference: US20080051387A1, “TETRAHYDROPYRIDO[3,4-D]PYRIMIDINES AND RELATED ANALOGUES” (priority 2006, published 2008)

target: T1, chimeric human H3 receptor (Homo sapiens, UniProt Q9Y5N1); assay: Chimeric human H3 receptor screening GTP binding assay (inhibition of histamine-stimulated GTP-gamma35S binding, Example 8); format: biochemical; conditions: symbol ! in Ki; test compound 4 μM, 1 μM histamine; read-out: percent inhibition of agonist-induced GTP-gammaS binding to H3
T1 construct: rat Galpha-i2 (Gnai2, rat); made in house; host or cells: Sf9 insect cells (baculovirus); P2 membranes
T1 sequence (Q9Y5N1 with tags, fused parts or gaps): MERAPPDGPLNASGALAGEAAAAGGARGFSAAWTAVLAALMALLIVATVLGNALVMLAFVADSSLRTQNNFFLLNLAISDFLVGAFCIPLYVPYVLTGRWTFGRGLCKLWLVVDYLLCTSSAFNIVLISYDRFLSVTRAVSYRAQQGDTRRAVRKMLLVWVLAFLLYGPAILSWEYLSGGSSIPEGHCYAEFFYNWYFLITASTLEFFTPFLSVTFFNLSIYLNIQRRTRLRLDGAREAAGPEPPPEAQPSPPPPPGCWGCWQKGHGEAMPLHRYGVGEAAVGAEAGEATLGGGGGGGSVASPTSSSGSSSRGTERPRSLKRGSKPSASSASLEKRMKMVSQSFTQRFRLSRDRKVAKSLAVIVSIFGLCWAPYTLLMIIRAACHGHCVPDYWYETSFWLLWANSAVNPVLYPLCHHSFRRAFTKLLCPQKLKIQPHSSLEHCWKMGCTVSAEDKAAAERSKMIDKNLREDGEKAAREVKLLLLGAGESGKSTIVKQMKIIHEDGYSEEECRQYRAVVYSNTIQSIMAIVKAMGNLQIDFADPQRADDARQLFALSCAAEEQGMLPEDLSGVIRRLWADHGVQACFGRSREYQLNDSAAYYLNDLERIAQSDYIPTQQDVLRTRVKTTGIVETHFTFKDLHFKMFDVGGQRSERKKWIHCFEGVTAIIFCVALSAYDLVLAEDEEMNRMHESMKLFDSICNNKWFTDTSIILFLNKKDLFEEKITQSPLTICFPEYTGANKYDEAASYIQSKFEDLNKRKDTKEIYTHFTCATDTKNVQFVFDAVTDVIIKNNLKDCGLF
Description: This Example illustrates a representative screening assay for evaluating inhibition of histamine-stimulated GTP-gamma^35S binding. Such GTP binding activity can be used to identify H3 antagonists and inverse agonists. A compound analyzed in this assay is referred to herein as a “test compound,” and the initial identification of antagonists and inverse agonists is performed using a test compound concentration of 4 μM.
Four independent baculoviral stocks (one directing the expression of the chimeric human H3 receptor and three directing the expression of each of the three subunits of a heterotrimeric G-protein) are used to infect a culture of Sƒ9 cells as described above. P2 membranes are prepared as described above, and are resuspended by Dounce homogenization (tight pestle) in GTP binding assay buffer (50 mM Tris pH 7.4, 120 mM NaCl, 5 mM MgCl2, 2 mM EGTA, 1 mg/ml BSA, 0.2 mg/ml bacitracin, 0.02 mg/ml aprotinin, 0.01 mg/ml saponin, 10 μM GDP) and added to assay tubes at a concentration of 35 μg protein/reaction tube. Non-radiolabeled test compounds are added to separate reactions at a concentration of 4 μM along with 1 μM histamine (agonist). Reactions are initiated by the addition of 125 pM GTP-gamma^35S with a final assay volume of 0.20 ml.
After a 60-min incubation at room temperature, reactions are terminated by vacuum filtration over GF/C filters (pre-soaked in 50 mM Tris pH 7.4, 120 mM NaCl plus 0.1% BSA) followed by washing with ice-cold buffer (50 mM Tris pH 7.4, 120 mM NaCl). The amount of receptor-bound (and thereby membrane-bound) GTP-gamma^35S is determined by measuring the bound radioactivity, preferably by liquid scintillation spectrometry of the washed filters. Non-specific binding is determined using 10 uM GTP-gammaS and typically represents less than 5 percent of total binding. After subtraction of non-specific binding, data is expressed as percent inhibition of 1 μM histamine signal.
Neutral antagonists are those test compounds that reduce the histamine-stimulated GTP binding activity towards, but not below, baseline levels. In contrast, in the absence of added histamine, inverse agonists reduce the GTP binding activity of the receptor-containing membranes below baseline. Any test compound that elevates GTP binding activity above baseline in the absence of added histamine in this assay is defined as having agonist activity.

| SMILES | inhibition at 4 µM |
| --- | --- |
| c1ccc2c(CN3CCc4c(ncnc4N4CCN(C5CCC5)CC4)C3)ccnc2c1 [Compound 72, 4-(4-cyclobutylpiperazin-1-yl)-7-(quinolin-4-ylmethyl)-5,6,7,8-tetrahydropyrido[3,4-d]pyrimidine] | ≥ 90% |
| c1ccc2ncc(CN3CCc4c(ncnc4N4CCN(C5CCC5)CC4)C3)cc2c1 [Compound 73, 4-(4-cyclobutylpiperazin-1-yl)-7-(quinolin-3-ylmethyl)-5,6,7,8-tetrahydropyrido[3,4-d]pyrimidine] | ≥ 90% |
| Cc1cccc(CN2CCc3c(ncnc3N3CCN(C4CCC4)CC3)C2)n1 [Compound 74, 4-(4-cyclobutylpiperazin-1-yl)-7-[(6-methylpyridin-2-yl)methyl]-5,6,7,8-tetrahydropyrido[3,4-d]pyrimidine] | ≥ 90% |
| c1cncc(CN2CCc3c(ncnc3N3CCN(C4CCC4)CC3)C2)c1 [Compound 75, 4-(4-cyclobutylpiperazin-1-yl)-7-(pyridin-3-ylmethyl)-5,6,7,8-tetrahydropyrido[3,4-d]pyrimidine] | ≥ 90% |
| c1nc2c(c(N3CCN(C4CCC4)CC3)n1)CCN(Cc1ccc(N3CCOCC3)nc1)C2 [Compound 76, 4-(4-cyclobutylpiperazin-1-yl)-7-[(6-morpholin-4-ylpyridin-3-yl)methyl]-5,6,7,8-tetrahydropyrido[3,4-d]pyrimidine] | ≥ 90% |
| Cc1cc(CN2CCc3c(ncnc3N3CCN(C4CCC4)CC3)C2)n(C)n1 [Compound 77] | ≥ 90% |
| COc1ccccc1CN1CCc2c(ncnc2N2CCN(C3CCC3)CC2)C1 [Compound 78, 4-(4-cyclobutylpiperazin-1-yl)-7-(2-methoxybenzyl)-5,6,7,8-tetrahydropyrido[3,4-d]pyrimidine] | ≥ 90% |
| COc1ccc(CN2CCc3c(ncnc3N3CCN(C4CCC4)CC3)C2)c(OC)c1 [Compound 79, 4-(4-cyclobutylpiperazin-1-dimethoxybenzyl)-5,6,7,8-tetrahydropyrido[3,4-d]pyrimidine] | ≥ 90% |
| CC(C)c1ccc(CN2CCc3c(ncnc3N3CCN(C4CCC4)CC3)C2)cc1 [Compound 80] | ≥ 90% |
| CCN1CCc2c(ncnc2N2CCN(C3CCC3)CC2)C1 [Compound 81, 4-(4-cyclobutylpiperazin-1-yl)-7-ethyl-5,6,7,8-tetrahydropyrido[3,4-d]pyrimidine] | ≥ 90% |
| CC(C)CCN1CCc2c(ncnc2N2CCN(C3CCC3)CC2)C1 [Compound 82, 4-(4-cyclobutylpiperazin-1-yl)-7-(3-methylbutyl)-5,6,7,8-tetrahydropyrido[3,4-d]pyrimidine] | ≥ 90% |
| CCCCN1CCc2c(ncnc2N2CCN(C3CCC3)CC2)C1 [Compound 83, 7-butyl-4-(4-cyclobutylpiperazin-1-yl)-5,6,7,8-tetrahydropyrido[3,4-d]pyrimidine] | ≥ 90% |
| CCCCCN1CCc2c(ncnc2N2CCN(C3CCC3)CC2)C1 [Compound 84, 4-(4-cyclobutylpiperazin-1-yl)-7-pentyl-5,6,7,8-tetrahydropyrido[3,4-d]pyrimidine] | ≥ 90% |
| CCCCCCN1CCc2c(ncnc2N2CCN(C3CCC3)CC2)C1 [Compound 85, 4-(4-cyclobutylpiperazin-1-yl)-7-hexyl-5,6,7,8-tetrahydropyrido[3,4-d]pyrimidine] | ≥ 90% |
| CC(C)CN1CCc2c(ncnc2N2CCN(C3CCC3)CC2)C1 [Compound 86, 4-(4-cyclobutylpiperazin-1-yl)-7-isobutyl-5,6,7,8-tetrahydropyrido[3,4-d]pyrimidine] | ≥ 90% |
| CCC(C)CN1CCc2c(ncnc2N2CCN(C3CCC3)CC2)C1 (centres unmarked) [Compound 87, 4-(4-cyclobutylpiperazin-1-yl)-7-(2-methylbutyl)-5,6,7,8-tetrahydropyrido[3,4-d]pyrimidine] | ≥ 90% |
| CCC(CC)CN1CCc2c(ncnc2N2CCN(C3CCC3)CC2)C1 [Compound 88, 4-(4-cyclobutylpiperazin-1-yl)-7-(2-ethylbutyl)-5,6,7,8-tetrahydropyrido[3,4-d]pyrimidine] | ≥ 90% |
